# Source: US20030229114A1, “Pyrroloquinoline quinone drugs as a neuroprotectant and methods of use thereof” (priority 2002, published 2003)
# Where “and” joins values, the source holds several entries; their conditions need not be identical. Equal values may be shown once. Entries after “also recorded” stand apart in the source; their conditions may differ. Read-outs that look alike come from different tables or passages of the source.
# Assays:
# [1] = ESR, in vitro; Urakami et al (1997); read-out: IC50 in scavenging superoxide; cited from earlier work
# [2] = system: cultured rat forebrain neurons; experiment: Measurement of intracellular cGMP in neuronal cultures (enzyme-linked immunoassay); type: cell-based
# Method: Medium was not subsequently changed.
# Intracellular cGMP was assayed by enzyme-linked immunoassay (Amersham). Cultures were washed three times, and then medium was replaced by EBSS with or without PQQ or SOD. The non-specific phosphodiesterase inhibitor, 3-isobutyl-1-methylxanthine (IBMX) at 100 μM was present in all conditions. DEA/NO, SIN-1 and peroxynitrite were added for 5 min, and then the medium was replaced with 200 μl of releasing reagent provided in the kit. The plates were agitated for 20 min at room temperature, and 20 μl of acetylation reagent was added. After 5 min, 50 μl samples were taken for assay.
# [3] = system: Oligodendrocytes; experiment: In vitro white matter injury assay: SIN-1 toxicity in oligodendrocytes; type: cell-based; conditions: PQQ 100 μM; SIN-1 0.25-2 mM, 2 hr; examined at 24 hr
# Method: Oligodendrocytes were exposed to various concentrations of SIN-1 (0, 0.25, 0.5, 1 and 2 mM) in EBSS for 2 hr with or without PQQ (100 μM), then washed with HBSS containing 0.1% BSA for 2 times. Oligodendrocytes were then returned to the culture medium. The neurotoxicity was examined at 24 hr.
# To illustrate the neuroprotective benefits of the invention, PQQ was used to show oligodendrocytes protection from cell toxicity in an in vitro white matter injury assay. Oligodendrocytes were exposed to various concentrations of SIN-1 (0, 0.25, 0.5, 1 and 2 mM) in EBSS for 2 hr with or without PQQ (100 μM), then washed with HBSS containing 0.1% BSA for 2 times. Oligodendrocytes were then returned to the culture medium. The neurotoxicity was examined at 24 hr.
# [4] = system: BSA; experiment: Western blot of BSA tyrosine nitration, cell-free (anti-nitrotyrosine antibody); type: biochemical, bovine; conditions: 1 hr
# Method: BSA (0.5 mg/ml) in EBSS with or without PQQ was exposed to SIN-1 or peroxynitrite for 1 hr, and then 4× sample buffer (40% glycerol, 20% β-mercaptoethanol, 0.004% bromophenol blue, 6.4% SDS, 25% 1M Tris-HCl, pH 6.8) was added. After the samples were heated for 5 min, 2 μg protein per lane was subjected to SDS-PAGE analysis, followed by transfer to PVDF membrane (NEN Life Science, Boston, Mass.) and reacted with a mouse anti-nitrotyrosine monoclonal antibody (Upstate Biotechnology). Proteins were visualized with horseradish peroxidase-conjugated sheep anti-mouse immunoglobulin G (IgG) followed by detection with enhanced chemiluminescence.
# [5] = Assay of H2O2 produced by the reaction of SIN-1 with SOD or PQQ; type: biochemical; conditions: data not shown
# Method: The method described by Yakes and Van Houten (1997) was used, exploiting the oxidation of o-diansidine dihydrochloride (o-DD, Sigma D-3252) in the presence of horseradish peroxidase (Sigma P-8250). Briefly, SIN-1 (1 mM) was incubated with SOD (100 units/ml) or PQQ (100 μM) in the absence or presence of catalase (100 units/ml) in EBSS for various times. Then o-DD was added to a final concentration of 250 μM and 2.5 units/ml horseradish peroxidase were added. After 1 hr incubation at 37° C., the absorbance at 470 nm was measured. The concentration of H2O2 in samples was calculated based on a standard curve obtained by the reaction of various concentrations of H2O2 with o-DD and horseradish peroxidase.
# [6] = system: cultured rat forebrain neurons; experiment: Survival assay of neuronal cultures (Alamar Blue reduction, 24 hr); conditions: for EC50: Rattus norvegicus, Neuron, read-out: EC50 of the protective effect against SIN-1 toxicity, SIN-1 1 mM
# Method: Neuronal cultures were prepared from embryonic day 16 Sprague Dawley rat fetuses using methods similar to those previously described (Dichter, 1978) but modified to produce cultures that contained <1% astrocytes (Rosenberg and Aizenman, 1989; Rosenberg, 1991; Rosenberg et al., 1992; Wang et al., 1998). Cultures were initially plated on poly-L-lysine-coated 24-well plastic plates (Costar, Cambridge, Mass.) using an 80:10:10 (v/v) mixture ofDMEM (Life Technologies 11960-010), Ham's F-12 (Sigma, N-4888), heat-inactivated iron-supplemented calf serum (Hyclone A2151), containing 2 mM glutamine, 25 mM HEPES, 24 U/ml penicillin, and 24 μg/ml streptomycin and maintained in a 5% CO2 (balance air) incubator at 36° C. Cell proliferation was inhibited by exposure to 5 μM cytosine arabinoside at 24 hr in vitro for 72 hr. On the fourth day of culture, the medium was completely removed and replaced with 90% MEM, 10% Nuserum IV (Collaborative Research), 2 mM glutamine, 5 mM HEPES, containing 50 units/ml superoxide dismutase (Boehringer Mannheim, Indianapolis, Ind.), 20 units/ml catalase (Sigma CV-40), total glucose 11 mM, and total sodium bicarbonate 9.3 mM, plus 2% B27 supplement (Life Technologies 17504-036). Medium was not subsequently changed. To prevent evaporation of water, culture dishes were kept in wet dishes containing filter paper that was always kept wet.
# In all experiments, 24-well plates were first washed three times in Hank's balanced salt solution (HBSS) containing 0.1% bovine serum albumin (BSA), and then they were placed in Earle's balanced salt solution (EBSS, which is composed of 116 mM NaCl, 5.4 mM KCl, 1.8 mM CaCl2, 0.8 mM MgSO4, 26 mM NaHCO3, 1 mM NaH2PO4 and 5.5 mM D-glucose). Experiments were carried out exclusively in EBSS. […] PQQ was directly dissolved in EBSS.
# Survival of cells was determined after 24 hr exposure to the test compounds by assessing the ability of cultures to reduce Alamar Blue (Trek Diagnostic Systems, Inc., Westlake, Ohio) as an index of viability (McGahon et al., 1995). Details of this procedure have been provided elsewhere (Back et al., 1998, 1999). In brief, the test medium was removed after 24 hr, and then replaced with EBSS plus a 1:100 dilution of Alamar Blue. After 2 hr exposure, the medium was diluted 50-fold with water, and the fluorescence intensity was determined in a Hitachi fluorescence spectrophotometer using an excitation wavelength of 530 nm and an emission wavelength of 590 nm. The photomultiplier voltage was set at 700 V. In some experiments, the cell viability determined by Alamar Blue was compared to that determined by the assay of lactate dehydrogenase (LDH) release (Koh and Choi, 1987).
# [7] = ONOO− 100 μM in the presence of PQQ 100 μM
smiles,measurement,setting,value
"O=C(O)c1cc(C(=O)O)c2c(n1)C(=O)C(=O)c1cc(C(=O)O)[nH]c1-2 [PQQ, Pyrroloquinoline quinone]",IC50,[1],0.038 µM
same,Intracellular cGMP content,[2]; DEA/NO 10 μM in the presence of PQQ 100 μM,255±38 % of control
same,Intracellular cGMP content,[2]; [7],142.5±16.2 % of control
same,Effect on cGMP levels in the presence of DEA/NO,"[2]; PQQ 100 μM, DEA/NO 10 μM",did not significantly alter
same,Effect on cGMP accumulation induced by SIN-1,"[2]; PQQ 100 μM, SIN-1 100 μM",potentiated; also recorded: enhanced
same,Intracellular cGMP content,[2]; SIN-1 100 μM in the presence of PQQ 100 μM,267±19.5 % of control and 313.5±45 % of control
same,Effect on oligodendrocyte death induced by SIN-1,[3],completely blocked
same,Effect on BSA nitration caused by ONOO−,"[4]; ONOO− 100 μM, PQQ 100-500 μM",potentiated; also recorded: increased
same,Effect on BSA nitration caused by SIN-1,"[4]; SIN-1 1 mM, PQQ 100 μM, 300 μM or 500 μM",completely blocked
same,Effect on oxidation of o-diansidine by H2O2,[5],did not reduce
same,Effect on neurotoxicity induced by NMDA plus DETA/NO,"[6]; 24 hr exposure, PQQ 100 μM",fully blocked; also recorded: block
same,Neuronal survival,[6]; DEA/NO 1 mM in the presence of PQQ 100 μM,39.7±16.8 % of control
same,Neuronal survival,[6]; DETA/NO 1 mM in the presence of PQQ 100 μM,30.7±7.7 % of control
same,Neuronal survival,[6]; DPT/NO 1 mM in the presence of PQQ 100 μM,1.7±0.7 % of control
same,Cell (neuronal) survival,[6]; [7],11±6% and 11±8%
same,Effect on neurotoxicity caused by nitric oxide donors,"[6]; PQQ 100 μM, DEA/NO, DPT/NO, DETA/NO 1 mM",nor did it prevent cell death; also recorded: no protective effect
same,Effect on neurotoxicity induced by ONOO− (peroxynitrite),"[6]; PQQ 100 μM, ONOO− 100 μM",potentiated; also recorded: significantly potentiates
same,Effect on neurotoxicity induced by SIN-1,"[6]; PQQ 100 μM, SIN-1 1 mM, no catalase",completely protected; also recorded: completely blocks
same,EC50,[6]; representative experiment FIG. 2B,22.6 µM
same,EC50,[6]; three experiments,15 ± 8.4 µM
same,Effect on neurotoxicity induced by NMDA plus DETA/NO,"[6]; four hour exposure, PQQ 100 μM, NMDA 20 μM, DETA/NO 300 μM",completely blocked; also recorded: blocks
